The numbers were not newly measured in US11419835B2, “Method of treatment and prevention of bacterial vaginosis” (EVOFEM, INC., priority 2016, dated 2022), which cites them from elsewhere.

For this data set, the system named is HIV. The conditions noted are these: compared with D or racemic lactic acid.

As for `C[C@H](O)C(=O)O` [L-lactic acid, L-(+)-lactic acid], the “potency in inactivating HIV” value is “more potent in inactivating HIV than D or racemic lactic acid”.
